{"source": "PubChem BioAssay (NCI)", "assay_in_all_cases": "NCI tumour cell line growth inhibition, 48 h", "key": {"[1]": {"tested_on": "HOP-18 NSCLC"}, "[2]": {"tested_on": "M19-MEL melanoma"}, "[3]": {"tested_on": "DLD-1 colon"}, "[4]": {"tested_on": "LXFL 529 NSCLC"}, "[5]": {"tested_on": "RXF-631 renal"}, "[6]": {"tested_on": "DMS 273 small cell lung"}, "[7]": {"tested_on": "DMS 114 small cell lung"}, "[8]": {"tested_on": "XF 498 CNS"}, "[9]": {"tested_on": "KM20L2 colon"}, "[10]": {"tested_on": "SN12K1 renal"}, "[11]": {"tested_on": "P388 leukemia"}, "[12]": {"tested_on": "P388/ADR leukemia"}}, "note": "Several values for one entry are separate records, joined by “and”; a condition that tells them apart may be missing. Equal values may be shown once.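 48-hour exposure; five concentrations; linearly interpolated endpoints. GI50 is the concentration that inhibits growth by half. Definition used: TGI = concentration required for complete inhibition of growth.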"}
{"compound": "COc1ccc(Sc2ccccc2[N+](=O)[O-])cc1", "values": [{"measurement": "TGI", "setting": "[1]", "result": "> 100", "unit": "µM"}, {"measurement": "TGI", "setting": "[2]", "result": "> 100", "unit": "µM"}, {"measurement": "TGI", "setting": "[3]", "result": "> 100", "unit": "µM"}, {"measurement": "TGI", "setting": "[4]", "result": "> 100", "unit": "µM"}, {"measurement": "TGI", "setting": "[5]", "result": "> 100", "unit": "µM"}, {"measurement": "TGI", "setting": "[6]", "result": "> 100", "unit": "µM"}]}
{"compound": "NS(=O)(=O)c1cc2c(cc1Cl)NC(C(=O)NNC(=O)c1ccncc1)=NS2(=O)=O", "values": [{"measurement": "TGI", "setting": "[7]", "result": "> 100", "unit": "µM"}, {"measurement": "TGI", "setting": "[1]", "result": "> 100", "unit": "µM"}, {"measurement": "TGI", "setting": "[8]", "result": "> 100", "unit": "µM"}, {"measurement": "TGI", "setting": "[2]", "result": "> 100", "unit": "µM"}, {"measurement": "TGI", "setting": "[3]", "result": "> 100", "unit": "µM"}, {"measurement": "TGI", "setting": "[4]", "result": "> 100", "unit": "µM"}, {"measurement": "TGI", "setting": "[9]", "result": "> 100", "unit": "µM"}, {"measurement": "TGI", "setting": "[6]", "result": "> 100", "unit": "µM"}]}
{"compound": "Cn1c(=O)c(C#N)c(O)c2cc3ccccc3nc21", "values": [{"measurement": "TGI", "setting": "[7]", "result": "> 100", "unit": "µM"}, {"measurement": "TGI", "setting": "[1]", "result": "> 100", "unit": "µM"}, {"measurement": "TGI", "setting": "[8]", "result": "> 100", "unit": "µM"}, {"measurement": "TGI", "setting": "[2]", "result": "> 100", "unit": "µM"}, {"measurement": "TGI", "setting": "[3]", "result": "> 100", "unit": "µM"}, {"measurement": "TGI", "setting": "[4]", "result": "> 100", "unit": "µM"}, {"measurement": "TGI", "setting": "[6]", "result": "> 100", "unit": "µM"}]}
{"compound": "Nc1cc(O)c2cc(N=Nc3ccc(N=Nc4ccc(N=Nc5ccc6cc(S(=O)(=O)O)cc(S(=O)(=O)O)c6c5)c5ccccc45)c4cc(S(=O)(=O)O)ccc34)c(S(=O)(=O)O)cc2c1", "values": [{"measurement": "TGI", "setting": "[1]", "result": "> 100", "unit": "µM"}, {"measurement": "TGI", "setting": "[8]", "result": "> 100", "unit": "µM"}, {"measurement": "TGI", "setting": "[2]", "result": "> 100", "unit": "µM"}, {"measurement": "TGI", "setting": "[3]", "result": "> 100", "unit": "µM"}, {"measurement": "TGI", "setting": "[10]", "result": "> 100", "unit": "µM"}, {"measurement": "TGI", "setting": "[11]", "result": "> 100", "unit": "µM"}, {"measurement": "TGI", "setting": "[6]", "result": "> 100", "unit": "µM"}]}
{"compound": "COC1=C(C)C(=O)C2=C(C1=O)C1C3CC4=C(C(=O)C(OC)=C(C)C4=O)C(CNC(=O)C(C)=O)N3C(C#N)C(C2)N1C", "note": "(stereo unspecified)", "values": [{"measurement": "GI50", "setting": "[7]", "result": 21.5, "unit": "pM"}, {"measurement": "GI50", "setting": "[1]", "result": 0.000212, "unit": "µM"}, {"measurement": "GI50", "setting": "[2]", "result": 94.6, "unit": "pM"}, {"measurement": "GI50", "setting": "[3]", "result": 40.4, "unit": "pM"}, {"measurement": "TGI", "setting": "[3]", "result": 0.278, "unit": "µM"}, {"measurement": "GI50", "setting": "[5]", "result": 0.000385, "unit": "µM"}, {"measurement": "TGI", "setting": "[12]", "result": 0.349, "unit": "µM"}, {"measurement": "GI50", "setting": "[9]", "result": 0.00267, "unit": "µM"}, {"measurement": "TGI", "setting": "[9]", "result": "0.246 µM and 1.03 µM"}, {"measurement": "GI50", "setting": "[6]", "result": 25.9, "unit": "pM"}]}
{"compound": "Cc1ccc(C)c(C(=O)CC2OC(O)C(Cl)C2Cl)c1", "note": "(stereo unspecified)", "values": [{"measurement": "TGI", "setting": "[7]", "result": "> 100", "unit": "µM"}, {"measurement": "TGI", "setting": "[1]", "result": "> 100", "unit": "µM"}, {"measurement": "TGI", "setting": "[8]", "result": "> 100", "unit": "µM"}, {"measurement": "TGI", "setting": "[2]", "result": "> 100", "unit": "µM"}, {"measurement": "TGI", "setting": "[3]", "result": 34.4, "unit": "µM"}, {"measurement": "TGI", "setting": "[4]", "result": 32.5, "unit": "µM"}, {"measurement": "TGI", "setting": "[9]", "result": "> 100", "unit": "µM"}, {"measurement": "TGI", "setting": "[6]", "result": "> 100", "unit": "µM"}]}
{"compound": "O=[N+]([O-])c1cccc2c1[nH]c1c(-c3ccccc3)nccc12", "values": [{"measurement": "TGI", "setting": "[7]", "result": 5.75, "unit": "µM"}, {"measurement": "TGI", "setting": "[1]", "result": 2.82, "unit": "µM"}, {"measurement": "TGI", "setting": "[8]", "result": 11.7, "unit": "µM"}, {"measurement": "TGI", "setting": "[2]", "result": 6.14, "unit": "µM"}, {"measurement": "TGI", "setting": "[3]", "result": "> 48.9", "unit": "µM"}, {"measurement": "TGI", "setting": "[10]", "result": 8.11, "unit": "µM"}, {"measurement": "TGI", "setting": "[12]", "result": 11.7, "unit": "µM"}, {"measurement": "TGI", "setting": "[9]", "result": 10.8, "unit": "µM"}, {"measurement": "TGI", "setting": "[11]", "result": 9.75, "unit": "µM"}, {"measurement": "TGI", "setting": "[6]", "result": 7.58, "unit": "µM"}]}
{"compound": "Cc1c(N(Cc2ccccc2)Cc2ccccc2)nc(S(C)(=O)=O)nc1S(C)(=O)=O", "values": [{"measurement": "TGI", "setting": "[7]", "result": 3.24, "unit": "µM"}, {"measurement": "TGI", "setting": "[1]", "result": 17.3, "unit": "µM"}, {"measurement": "TGI", "setting": "[8]", "result": 3.16, "unit": "µM"}, {"measurement": "TGI", "setting": "[2]", "result": 2.89, "unit": "µM"}, {"measurement": "TGI", "setting": "[3]", "result": 3.59, "unit": "µM"}, {"measurement": "TGI", "setting": "[4]", "result": 3.45, "unit": "µM"}, {"measurement": "TGI", "setting": "[9]", "result": 3.28, "unit": "µM"}, {"measurement": "TGI", "setting": "[6]", "result": 4.29, "unit": "µM"}]}
{"compound": "NS(=O)(=O)C1CCCCC1C(=O)NNC(=O)C(=O)Nc1nc(=S)[nH][nH]1", "note": "(stereo unspecified)", "values": [{"measurement": "TGI", "setting": "[7]", "result": "> 100", "unit": "µM"}, {"measurement": "TGI", "setting": "[8]", "result": "> 100", "unit": "µM"}, {"measurement": "TGI", "setting": "[2]", "result": "> 100", "unit": "µM"}, {"measurement": "TGI", "setting": "[3]", "result": "> 100", "unit": "µM"}, {"measurement": "TGI", "setting": "[4]", "result": "> 100", "unit": "µM"}, {"measurement": "TGI", "setting": "[9]", "result": "> 100", "unit": "µM"}, {"measurement": "TGI", "setting": "[6]", "result": "> 100", "unit": "µM"}]}
